Experimental findings from ChEMBL document CHEMBL1201862, “PubChem BioAssay data set” (2004) are described below.

Among the test systems are BT-549; DU-145; RXF 393; UACC-257; NCI-H522; HCT-116; OVCAR-3; ACHN; SK-OV-3; SK-MEL-5; Hs-578T; COLO 205; HOP-62; SNB-75; K562; KM12; MDA-N; MOLT-4; SF-539.
Common to all, as to test: growth of human tumour cells (NCI), 48 h

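Dose response: 5 concentrations. Exposure: 48 h. Format: 96-well plates. Endpoint: linear interpolation; highest concentration if not reached. At the GI50, growth is halved.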 Active and inactive are the calls of the source. No stated cut-off is given here; in the data, active = GI50 up to about 1.1 µM and inactive = higher.

`CC(=O)Nc1ccc(/N=N\c2c(O)c(S(=O)(=O)O)cc3cc(S(=O)(=O)O)ccc23)cc1`: the GI50 in the experiment on BT-549, with DU-145, in the experiment with RXF 393, in the experiment with UACC-257, with NCI-H522 and in the experiment with HCT-116 was > 100 µM (inactive) each time. The GI50 with OVCAR-3, with ACHN, in the experiment on SK-OV-3, in the experiment on SK-MEL-5, in the experiment with Hs-578T and with COLO 205 was > 100 µM (inactive) throughout. In addition, the GI50 with HOP-62, in the experiment with SNB-75, with K562, in the experiment with KM12 and in the experiment on MDA-N was > 100 µM (inactive) in each case.
For the molecule `COc1cc(C2CC(C)(N3CCCC3)Oc3cc4c(cc32)OCO4)cc(OC)c1OC` (configuration not stated), the GI50 with BT-549 is 0.794 µM (active); with DU-145, 0.42 µM (active); in the experiment with RXF 393, 0.0908 µM (active); in the experiment on UACC-257, 0.13 µM (active); in the experiment with NCI-H522, 0.2 µM (active); in the experiment with HCT-116 it was 0.299 µM (active). Moreover, the GI50 is 0.129 µM (active) in the experiment on OVCAR-3; 0.69 µM (active) in the experiment on ACHN; 0.21 µM (active) in the experiment on MOLT-4; 0.124 µM (active) in the experiment on SK-MEL-5; 0.259 µM (active) in the experiment with Hs-578T; 2.9 µM (inactive) with COLO 205. Further, the GI50 with HOP-62 was 0.335 µM (active); in the experiment with SNB-75 it was 0.0865 µM (active); with K562, 0.0371 µM (active); in the experiment with KM12, 0.182 µM (active); in the experiment with SF-539, 0.215 µM (active); with MDA-N it was 0.0275 µM (active).
Take `CC(=O)C(C)(C)CCC(C)(C)C(C)=O`: the GI50 in the experiment on BT-549 was > 100 µM (inactive); in the experiment on DU-145 it was > 100 µM (inactive); in the experiment on RXF 393, < 0.01 µM (active); in the experiment with UACC-257, > 100 µM (inactive); in the experiment on NCI-H522, > 100 µM (inactive); in the experiment with HCT-116, > 100 µM (inactive). Further, the GI50 in the experiment on ACHN, with MOLT-4, with SK-OV-3, with SK-MEL-5, with Hs-578T and in the experiment on COLO 205 was > 100 µM (inactive) throughout. Moreover, the GI50 in the experiment on HOP-62, in the experiment with SNB-75, in the experiment with K562, in the experiment on KM12, in the experiment with SF-539 and in the experiment with MDA-N was > 100 µM (inactive) throughout.
Regarding `CCCC(CCC(N)=O)(CCC(N)=O)[N+](=O)[O-]`, the GI50 is > 100 µM (inactive) in the experiment with BT-549; > 100 µM (inactive) in the experiment with DU-145; 69.3 µM (inactive) in the experiment with RXF 393; > 100 µM (inactive) with UACC-257; 26.5 µM (inactive) with NCI-H522; > 100 µM (inactive) with HCT-116. In addition, the GI50 in the experiment with ACHN, with MOLT-4, in the experiment with SK-OV-3, with SK-MEL-5, in the experiment with Hs-578T and with COLO 205 was > 100 µM (inactive) in each case. The GI50 with SNB-75, in the experiment with K562, in the experiment with KM12, in the experiment on SF-539 and in the experiment on MDA-N was > 100 µM (inactive) throughout.
Turning to `COc1ccc(-c2c(=O)[nH]n3c(=S)[nH]c(-c4ccccc4)nc23)cc1OC`, the GI50 is 17.4 µM (inactive) in the experiment on BT-549; 23 µM (inactive) in the experiment on DU-145; 17.7 µM (inactive) with RXF 393; 24 µM (inactive) in the experiment with UACC-257; 17.5 µM (inactive) with NCI-H522; 16.6 µM (inactive) with HCT-116. Moreover, the GI50 is 23.3 µM (inactive) in the experiment on ACHN; 8.51 µM (inactive) in the experiment with MOLT-4; 25.1 µM (inactive) with SK-OV-3; 16.4 µM (inactive) with SK-MEL-5; 29.7 µM (inactive) in the experiment with Hs-578T; 16.8 µM (inactive) in the experiment with COLO 205. The GI50 was 30 µM (inactive) in the experiment on HOP-62; 24.5 µM (inactive) in the experiment with SNB-75; 12.9 µM (inactive) in the experiment with K562; 17.7 µM (inactive) with KM12; 14.8 µM (inactive) with MDA-N.
For `CNC(=O)N1CCN(C(=O)NC)CCN(C(=O)NC)CC1`, the GI50 in the experiment with BT-549, in the experiment with DU-145, in the experiment on RXF 393, in the experiment on UACC-257, with NCI-H522 and in the experiment with HCT-116 was > 100 µM (inactive) throughout. Further, the GI50 in the experiment with ACHN, in the experiment with MOLT-4, in the experiment with SK-OV-3, in the experiment with SK-MEL-5, with Hs-578T and in the experiment with COLO 205 was > 100 µM (inactive) each time. For the same molecule, the GI50 with HOP-62, in the experiment with SNB-75, in the experiment with K562 and with MDA-N was > 100 µM (inactive) each time.
For `COCc1nc2c(OC)c(-c3nc4ccc(N5CCN(C)CC5)nc4[nH]3)cc(OC)c2n1C`, the GI50 in the experiment on BT-549 was 43.7 µM (inactive); in the experiment with DU-145, 37.7 µM (inactive); in the experiment on RXF 393, 20.3 µM (inactive); in the experiment on UACC-257 it was 17.9 µM (inactive); in the experiment on NCI-H522 it was 27.4 µM (inactive); in the experiment on HCT-116, 41.3 µM (inactive). For the same molecule, the GI50 with OVCAR-3 was 53.6 µM (inactive); in the experiment with ACHN, 17.5 µM (inactive); in the experiment with MOLT-4, 16.4 µM (inactive); in the experiment with SK-OV-3, 66.5 µM (inactive); in the experiment with Hs-578T, 55.3 µM (inactive); with COLO 205, 8.59 µM (inactive). The GI50 is 42.3 µM (inactive) with HOP-62; 18.5 µM (inactive) with SNB-75; 29.3 µM (inactive) with K562; 24 µM (inactive) with KM12; 12.3 µM (inactive) in the experiment on SF-539; 37.7 µM (inactive) in the experiment with MDA-N.
Consider `CSc1nc(=O)cnn1C`, for which the GI50 in the experiment on BT-549, with DU-145, in the experiment with RXF 393, in the experiment with UACC-257, in the experiment with NCI-H522 and with HCT-116 was > 100 µM (inactive) throughout. In addition, the GI50 in the experiment with OVCAR-3, in the experiment on ACHN, with MOLT-4, in the experiment with SK-OV-3, in the experiment on SK-MEL-5 and in the experiment on Hs-578T was > 100 µM (inactive) each time. For the same molecule, the GI50 with COLO 205, in the experiment with HOP-62, in the experiment with SNB-75, in the experiment on K562, in the experiment with KM12 and in the experiment with MDA-N was > 100 µM (inactive) each time.
As for `Cc1cc2nc3c(C#N)c4c(c(-c5ccc(Cl)cc5)n3c2cc1C)CCC4`, the GI50 in the experiment on BT-549 is 20.4 µM (inactive); in the experiment with DU-145, 20.9 µM (inactive); with RXF 393 it was 45 µM (inactive); in the experiment on UACC-257, 21.4 µM (inactive); in the experiment on NCI-H522, 18.7 µM (inactive); in the experiment on HCT-116 it was 18.7 µM (inactive). Further, the GI50 in the experiment on OVCAR-3 was 20.3 µM (inactive); in the experiment with ACHN, 24.2 µM (inactive); in the experiment with MOLT-4, 25.1 µM (inactive); in the experiment on SK-OV-3, 18.2 µM (inactive); in the experiment with SK-MEL-5 it was 19.6 µM (inactive); in the experiment on Hs-578T it was 25.1 µM (inactive). Besides, the GI50 with COLO 205 was 19.8 µM (inactive); in the experiment with HOP-62, 22.4 µM (inactive); in the experiment on K562, 23.1 µM (inactive); with KM12, 22 µM (inactive); in the experiment on SF-539, 29.2 µM (inactive); in the experiment with MDA-N, 28.8 µM (inactive).
Turning to `O=C1OC(C2OC(=O)c3cc(O)c(O)c(O)c3-c3c(O)c(O)c4oc(=O)c5c(c(O)c(O)c6oc(=O)c3c4c65)-c3c(cc(O)c(O)c3O)C(=O)OCC2O)C2OC(=O)c3c(c(O)c(O)c(O)c3[C@H]2O)-c2c1cc(O)c(O)c2O` (some centres not stated), the GI50 in the experiment with BT-549 is 24 µM (inactive); in the experiment on DU-145, 30.3 µM (inactive); in the experiment with RXF 393, 26.5 µM (inactive); in the experiment with UACC-257, 32 µM (inactive); with NCI-H522, 17.1 µM (inactive); with HCT-116, 17.3 µM (inactive). Besides, the GI50 was 24.4 µM (inactive) in the experiment with OVCAR-3; 24.7 µM (inactive) in the experiment with ACHN; 22.6 µM (inactive) with MOLT-4; 59.7 µM (inactive) with SK-OV-3; 13.9 µM (inactive) in the experiment with SK-MEL-5; 38.6 µM (inactive) in the experiment with Hs-578T. Besides, the GI50 in the experiment with COLO 205 was 14.8 µM (inactive); in the experiment with HOP-62, 33.5 µM (inactive); in the experiment on SNB-75, 16.9 µM (inactive); in the experiment with K562, 19.2 µM (inactive); with KM12 it was 15.2 µM (inactive); in the experiment on MDA-N it was 21.2 µM (inactive).
As to `CC1(C)OC2C(CO)OC(n3cnc(N)nc3=O)C2O1` (configuration not stated), the GI50 in the experiment with BT-549, in the experiment on DU-145, in the experiment with RXF 393, in the experiment with UACC-257, in the experiment on NCI-H522 and in the experiment with HCT-116 was > 100 µM (inactive) in each case. Further, the GI50 in the experiment on OVCAR-3, in the experiment on ACHN, with MOLT-4, with SK-OV-3, in the experiment on SK-MEL-5 and in the experiment with Hs-578T was > 100 µM (inactive) each time. Besides, the GI50 with COLO 205, in the experiment on HOP-62, in the experiment on K562, in the experiment on SF-539 and in the experiment with MDA-N was > 100 µM (inactive) throughout.
